Measured values: PubChem BioAssay AID1996
Converted amounts (≈) assume the structure as drawn.

Conditions: buffer; pH 7.4; 200.0 µM

| solubility kinetic | Structure (SMILES) |
| --- | --- |
| > 40.1 µg/mL | CCc1cc(=O)[nH]c(SCC(=O)N2CCCC2)n1 |
| 13.7 µg/mL (≈ 55.6 µM) | O=[N+]([O-])c1ccccc1CSc1ccccn1 |
| > 49 µg/mL | CC(C(=O)Nc1ccc(C#N)cc1)N1CCN(C(=O)C2CC2)CC1 (stereo unspecified) |
| > 48.4 µg/mL | Cc1ccc(C(=O)NCC(=O)N2CCc3ccccc3C2)cc1C |
| 29.8 µg/mL (≈ 117 µM) | CCCC1c2ccsc2CCN1C(=S)NC (stereo unspecified) |
| 38.4 µg/mL (≈ 144 µM) | COc1ccc(C2=CSC3=NCCN23)cc1Cl |
| 0.9 µg/mL (≈ 2.75 µM) | COc1ccccc1OCc1nc(-c2cccc([N+](=O)[O-])c2)no1 |
| > 39.8 µg/mL | COc1ccc(-c2nc(C(=O)O)cs2)cc1OC |
| 37.3 µg/mL (≈ 119 µM) | NC(=O)C1CCN(CC(O)CSc2ccc(F)cc2)CC1 (stereo unspecified) |
| 41.1 µg/mL (≈ 135 µM) | O=C(COC(=O)c1ccc[nH]c1=O)NCCC1=CCCCC1 |
| > 44.9 µg/mL | CC(C(=O)Nc1ccc(C#N)cc1)N(C)Cc1cccs1 (stereo unspecified) |
| 45.8 µg/mL (≈ 143 µM) | COc1ccc(CNC(=O)c2cncc(Br)c2)cc1 |
| 7.1 µg/mL (≈ 23.9 µM) | COc1ccc(NC(=O)CCCC(=O)c2ccccc2)cc1 |
| 2.2 µg/mL (≈ 5.74 µM) | COc1ccc(CCNC(=O)COC(=O)/C=C/c2ccc3c(c2)OCO3)cc1 |
| > 51.7 µg/mL | CC1CCCC(C)N1C(=O)Cn1cnc2cc([N+](=O)[O-])ccc2c1=O (stereo unspecified) |
| 15.2 µg/mL (≈ 39.4 µM) | Cn1c(N)c(C(=O)COC(=O)c2ccc(C(F)(F)F)cc2)c(=O)n(C)c1=O |
| > 35.7 µg/mL | N#CCc1ccc(OC(=O)c2cccnc2)cc1 |
| 41.4 µg/mL (≈ 120 µM) | O=C(c1ccccc1)c1cccn1CC(=O)N1CCc2ccccc2C1 |
| 42.8 µg/mL (≈ 137 µM) | CN(C)CCCNC(=S)Nc1ccc(-c2ccccc2)cc1 |
| 2.4 µg/mL (≈ 9.03 µM) | O=C(O/N=C/c1ccc(Cl)cc1)C1CCCCC1 |
| > 35.6 µg/mL | Cc1ccsc1C(=O)NC1CCCCC1C (stereo unspecified) |
| 32 µg/mL (≈ 104 µM) | CC12CCC(C(=O)Nc3cc(F)ccc3F)(CC1=O)C2(C)C (stereo unspecified) |
| > 38.9 µg/mL | CC(NC(=O)c1ccco1)c1ccc2c(c1)OCO2 (stereo unspecified) |
| 2.4 µg/mL (≈ 6.89 µM) | COC(=O)c1cc(OC)c(OC)cc1NC(=O)Nc1ccccc1F |

| solubility kinetic | Structure (SMILES) |
| --- | --- |
| > 41.7 µg/mL | COc1ccc(S(=O)(=O)NCc2cccnc2)cc1 |
| > 49.8 µg/mL | CNC(=O)NC(=O)CN1C(=O)NC2(CCOc3ccccc32)C1=O (stereo unspecified) |
| > 55.4 µg/mL | Cc1c(OCC(F)(F)F)ccnc1CS(=O)c1nc2ccccc2[nH]1 (stereo unspecified) |
| > 51.5 µg/mL | Br.COc1ccc(C2=CSC3=NCCN23)cc1OC |
| 44.3 µg/mL (≈ 148 µM) | CC1(C)C(=O)N(c2ccccc2Cl)C(=O)c2ccccc21 |
| 15.9 µg/mL (≈ 41 µM) | COc1ccc(CCNC(=O)COC(=O)CCC(=O)c2ccc(F)cc2)cc1 |
| > 49.4 µg/mL | COc1ccc(/C=N/NC(=O)c2ccncc2)c(C(=O)O)c1OC |
| > 38.5 µg/mL | CN=C(N)NC(=O)Nc1c(C)cccc1C.Cl |
| > 55.4 µg/mL | O=C(Cc1ccccc1[N+](=O)[O-])Nc1ccccc1C(=O)N1CCOCC1 |
| > 42.5 µg/mL | O=C(CCS(=O)(=O)c1ccccc1)N1CCOCC1 |
| > 43.4 µg/mL | Cc1ccc(S(=O)(=O)NC(=O)c2ccccc2C)cc1 |
| 17.9 µg/mL (≈ 54.8 µM) | CCCCN1C(=O)c2ccc(C(=O)NCc3ccco3)cc2C1=O |
| 3.9 µg/mL (≈ 15.1 µM) | O=C(Nc1cccc(Cl)c1Cl)C1CCCC1 |
| 34 µg/mL (≈ 111 µM) | Cc1ccc(NC(=O)CCN2C(=O)OC(C)(C)C2(C)O)cc1 (stereo unspecified) |
| < 0.4 µg/mL | CCN(CC)S(=O)(=O)c1ccc2[nH]c(=O)c3ccccc3c2c1 |
| < 0.2 µg/mL | Cc1ccccc1-c1nc(C#N)c(N2CCC(C)CC2)o1 |
| > 53.6 µg/mL | Cc1cc(C)n2nc(C(=O)OCC(=O)NCc3ccc(F)cc3)nc2n1 |
| 31.4 µg/mL (≈ 128 µM) | O/N=C/c1ccnc(SCc2ccccc2)n1 |
| 31.7 µg/mL (≈ 103 µM) | CC(=O)N1CCN(c2nc3ccc([N+](=O)[O-])cc3s2)CC1 |
| 4.8 µg/mL (≈ 13.1 µM) | CN(Cc1nc2ccccc2c(=O)[nH]1)C(=O)c1cc2c(s1)CCCCC2 |
| < 0.3 µg/mL | Cc1ccc(C#N)c(SCc2ccccc2F)n1 |
| > 43.7 µg/mL | NS(=O)(=O)c1cccc(NC(=O)Nc2ccccc2)c1 |
| > 42.9 µg/mL | O=C(NCC1CCCCC1)c1ccc(Br)o1 |
| 38.1 µg/mL (≈ 125 µM) | CCOc1ccc(C2(C)NC(=O)N(CCN(C)C)C2=O)cc1 (stereo unspecified) |

| solubility kinetic | Structure (SMILES) |
| --- | --- |
| 16.6 µg/mL | S=C([S-])N1CCCC1.[NH4+] |
| 14.1 µg/mL (≈ 43.6 µM) | O=C(CNC(=O)c1ccco1)Nc1ccc(Br)cc1 |
| > 37.4 µg/mL | O=C(O)CC(NC(=O)c1ccco1)c1ccco1 (stereo unspecified) |
| 36.3 µg/mL (≈ 133 µM) | CCCCOc1ccc(Cc2cnc(N)nc2N)cc1 |
| 4.3 µg/mL (≈ 13.7 µM) | COc1cccc(NC(=O)CC(=O)c2ccc([N+](=O)[O-])cc2)c1 |
| 40.9 µg/mL (≈ 137 µM) | Cc1ccc(CSCC(=O)NCCc2ccccc2)cc1 |
| 3.8 µg/mL (≈ 10.8 µM) | Cc1ccc2nc(NC(=O)CC3Oc4ccccc4NC3=O)sc2c1 (stereo unspecified) |
| > 54.8 µg/mL | COc1cc(OC)cc(C(=O)N[C@H](C(=O)NC2=NCCS2)C(C)C)c1 |
| > 43.3 µg/mL | O=C(CNS(=O)(=O)c1cccs1)N1CCCCC1 |
| 0.6 µg/mL (≈ 2.02 µM) | Cc1cccc(NC(=O)/C(C#N)=C/c2ccc(Cl)cc2)n1 |
| 3.7 µg/mL (≈ 11.7 µM) | COC(=O)c1ccc(NC(=S)NC(=O)c2cccnc2)cc1 |
| < 0.2 µg/mL | Cc1ccc(C)c(Nc2nc(-c3ccncc3)nc3ccccc23)c1 |
| > 40.6 µg/mL | CC(C)NC(=O)c1ccc(S(=O)(=O)N(C)C)cc1 |
| > 43.6 µg/mL | N#Cc1ccccc1-c1ccccc1C(=O)N1CCCCC1 |
| > 43.4 µg/mL | CCCCN(C)C(=O)C1CCN(Cc2cccnc2)CC1 |
| 31.5 µg/mL (≈ 128 µM) | O=[N+]([O-])c1ccc2nc(C3CCCCC3)[nH]c2c1 |
| 40.7 µg/mL (≈ 124 µM) | OCC1(Cc2ccccc2F)CCCN(CCc2ccccc2)C1 (stereo unspecified) |
| 15.8 µg/mL (≈ 48.1 µM) | COc1ccc(OCC(=O)Nc2ccc3nc(C)sc3c2)cc1 |
| 4.1 µg/mL (≈ 14.4 µM) | Cc1cc(C)c2oc(=O)cc(CN3CCC(C)CC3)c2c1 |
| > 35.3 µg/mL | COc1ccc(NC(=O)C2CCOC2=O)cc1 (stereo unspecified) |
| 15.6 µg/mL (≈ 33.4 µM) | CCOC(=O)C1CCN(C(=O)CN2C(=O)NC(C)(c3ccc4cc(OC)ccc4c3)C2=O)CC1 (stereo unspecified) |
| > 43.2 µg/mL | CCCCNC(=O)COC(=O)c1ccc(F)cc1Cl |
| 0.4 µg/mL (≈ 1.14 µM) | Cc1ccc(CN(Cc2ccco2)C(=S)Nc2ccccc2C)cc1 |
| > 69.1 µg/mL | CCN(CC)S(=O)(=O)c1cccc(C(=O)NC(C(=O)NCCc2ccccn2)C(C)C)c1 (stereo unspecified) |

| solubility kinetic | Structure (SMILES) |
| --- | --- |
| 30.9 µg/mL (≈ 94.7 µM) | Cc1nc2ccc(NC(=O)C3COc4ccccc4O3)cc2s1 (stereo unspecified) |
| > 48.2 µg/mL | O=C(CN1N=C(c2ccccc2)CCC1=O)NCc1ccccc1 |
| 5.5 µg/mL (≈ 16.2 µM) | O=C(CN1C(=O)S/C(=C/c2ccncc2)C1=O)Nc1ccccc1 |
| 42.5 µg/mL (≈ 122 µM) | Cc1cc(C(=O)N2CCCC(C(=O)c3cc(F)ccc3F)C2)c(C)o1 (stereo unspecified) |
| > 40.4 µg/mL | O=C(NCc1ccco1)c1cccc(C(F)(F)F)c1 |
| < 0.3 µg/mL | Fc1ccc(-c2csc(-c3ccccn3)n2)cc1F |
| 17.9 µg/mL (≈ 75.4 µM) | Nc1ccc(-c2cc3ccccc3oc2=O)cc1 |
| 20.2 µg/mL (≈ 54.7 µM) | COc1cccc(OCC(O)CNC(=O)c2oc3ccc(C)cc3c2C)c1 (stereo unspecified) |
| 25.9 µg/mL (≈ 103 µM) | Cc1ccc(C(=O)Nc2cccc3ccccc23)o1 |
| 17.1 µg/mL (≈ 55.8 µM) | O=C(Nc1ccccc1NC(=O)c1ccco1)c1ccccc1 |
| > 35.6 µg/mL | O=C(Cc1ccc(F)cc1)NCC1CCCO1 (stereo unspecified) |
| 37.6 µg/mL (≈ 146 µM) | Cc1cccc(C(=O)NCCCn2ccnc2)c1C |
| > 36.2 µg/mL | Cc1ccc(C)c(NCc2ccccc2CO)c1 |
| > 45.5 µg/mL | COc1ccc(N=CC2=C(O)CC(C)(C)CC2=O)cc1OC |
| 7.3 µg/mL (≈ 21.2 µM) | Cc1cc(NC(=O)CSc2nc3ccccc3n2CC(C)C)no1 |
| 0.6 µg/mL (≈ 2.2 µM) | N#Cc1c(-c2ccccc2)cc(-c2ccccc2)[nH]c1=O |
| 8 µg/mL (≈ 26.6 µM) | COc1ccc(C(=O)CSc2ncnc3nc[nH]c23)cc1 |
| > 37.4 µg/mL | Cc1ccc(S(=O)(=O)Nc2ncccn2)cc1 |
| > 25.8 µg/mL | O/N=C/c1ccc2ccccc2n1 |
| > 40.1 µg/mL | CCOc1ccc(Nc2nc3ccccc3n2C)cc1 |
| > 52.2 µg/mL | CCOc1ccc(Nc2nc(NCC(=O)O)nc(N)c2[N+](=O)[O-])cc1 |
| > 43.4 µg/mL | Cc1nn(CC(=O)NCc2cccnc2)c(C)c1[N+](=O)[O-] |
| 26 µg/mL (≈ 61.5 µM) | Cc1ccc(S(=O)(=O)N2CCOCC2)cc1C(=O)NCCc1ccc(Cl)cc1 |
| > 50.9 µg/mL | O=C1CSC(c2cccnc2)N1Cc1ccc(Cl)cc1Cl (stereo unspecified) |

| solubility kinetic | Structure (SMILES) |
| --- | --- |
| 3.4 µg/mL (≈ 9.62 µM) | CCCc1cc(=O)[nH]c(SCC(=O)Nc2cccc3ccccc23)n1 |
| > 51.1 µg/mL | O=C(c1cccc(F)c1)N1CCC(c2nc3ccccc3s2)CC1 |
| 0.9 µg/mL (≈ 2.77 µM) | CCn1c(=O)c(C(=O)Nc2ncccc2O)c(O)c2ccccc21 |
| 38 µg/mL (≈ 141 µM) | O=C(O)/C=C/C(=O)Nc1ccc(Cl)c(C(=O)O)c1 |
| 35.9 µg/mL (≈ 146 µM) | O=C(NCc1ccccn1)Nc1cccc(F)c1 |
| 17.7 µg/mL (≈ 58.7 µM) | Cc1cc(C(=O)OCC(=O)NC(C)c2ccccc2)c(C)o1 (stereo unspecified) |
| > 57.1 µg/mL | CCOC(=O)C1CCCN(C(=O)CN2C(=O)c3ccccc3S2(=O)=O)C1 (stereo unspecified) |
| 9 µg/mL (≈ 27.5 µM) | CCC(C)(C)NC(=O)COc1ccc(OCc2ccccc2)cc1 |
| 11.8 µg/mL (≈ 44.1 µM) | COc1ccc(S(=O)(=O)n2cccc2)cc1OC |
| 39.4 µg/mL (≈ 139 µM) | NC(=O)COC(=O)c1c2c(nc3ccccc13)CCCC2 |
| > 49.7 µg/mL | COc1cc(OC)c(OC)cc1CNCc1ccc2c(c1)OCO2 |
| > 36.8 µg/mL | Nc1ccn([C@H]2C[C@H](O)[C@@H](CO)O2)c(=O)n1.O |
| 14.1 µg/mL (≈ 43.1 µM) | CCOc1cc(C2NC(=O)c3ccccc3O2)ccc1OC(C)C (stereo unspecified) |
| 1.8 µg/mL (≈ 6.05 µM) | CC(C)(C)c1ccccc1OCC(=O)NCc1ccccc1 |
| > 42.4 µg/mL | CN1CCN(CC(=O)NC(=O)NC2CCCCC2)CC1 |
| > 47.6 µg/mL | CCCNC(=O)c1nn2cc(Br)cnc2c1Cl |
| > 50.5 µg/mL | Cc1nnc(SCC(=O)c2c(N)n(C3CC3)c(=O)[nH]c2=O)n1C |
| > 44.9 µg/mL | O=C1NC(=O)C(Cc2cccc(Oc3ccccc3)c2)S1 (stereo unspecified) |
| > 59.5 µg/mL | COc1cc(C(=O)OCCNC(=O)c2cccnc2)cc(OC)c1OC.Cl |
| > 48.1 µg/mL | COCCC(=O)Nc1ccc2c(c1)CN(C(=O)CCOC)CC2 |
| < 0.7 µg/mL | O=S(=O)(NOCc1ccc(Cl)cc1)c1ccc(Cl)cc1 |
| 4.3 µg/mL (≈ 13.7 µM) | N#C/C(=C/c1ccc(O)cc1)C(=O)NCc1ccc(Cl)cc1 |
| 14 µg/mL (≈ 37 µM) | Cc1ccc(NC(=O)[C@@H]2CCCN2S(=O)(=O)c2ccc(Cl)cc2)cc1 |

| Structure (SMILES) | solubility kinetic |
| --- | --- |
| COc1cc(CN2CCCCCC2)cc(OC)c1OC.O=C(O)C(=O)O | > 55.4 µg/mL |
| Clc1cc(Cl)cc(NC2=NCCS2)c1 | 8.8 µg/mL (≈ 35.6 µM) |
